The compounds below were run against Human immunodeficiency virus type 1 reverse transcriptase (Human immunodeficiency virus 1, UniProt Q72547) (assay: Inhibition of HIV-1 reverse transcriptase after 1 hr by ELISA plate reader analysis).

Compound	IC50 [µM]
O=C1CCS[C@@H]2[C@@H](O)[C@@H](O)[C@H](O)[C@H](CO)N12	6.02
O=C1c2ccccc2S[C@H]2[C@@H](O)[C@@H](O)[C@H](O)CN12	1.58
O=C1CCS[C@H]2[C@@H](O)[C@@H](O)[C@H](O)[C@H](CO)N12	12.9
O=C1CCS[C@@H]2[C@@H](O)[C@@H](O)[C@H](O)[C@@H](CO)N12	1.41
O=C1c2ccccc2S[C@@H]2[C@@H](O)[C@@H](O)[C@H](O)CN12	3.83

Further lines, results first:

IC50 [µM]	Compound
0.49	O=C1c2ccccc2S[C@H]2[C@@H](O)[C@@H](O)[C@H](O)[C@H](CO)N12
1.32	O=C1c2ccccc2S[C@@H]2[C@@H](O)[C@@H](O)[C@H](O)[C@H](CO)N12
53.8	O=C1c2cccnc2S[C@@H]2[C@@H](O)[C@@H](O)[C@H](O)[C@@H](CO)N12
26.8	O=C1c2cccnc2S[C@@H]2[C@@H](O)[C@@H](O)[C@H](O)[C@H](CO)N12
19.7	O=C1c2ccccc2S[C@@H]2[C@@H](O)[C@@H](O)[C@H](O)[C@@H](CO)N12
31.4	O=C1c2cccnc2S[C@H]2[C@@H](O)[C@@H](O)[C@H](O)[C@H](CO)N12
